Like-named read-outs stand apart in the source and are kept apart here.
Key:
ER+ MCF7 xenograft = assay: MCF-7 breast cancer xenograft model; assay type: in vivo, mice; conditions: for tumor growth inhibition (TGI): after 27 days of treatment
Description: Tumors were measured every 3 to 4 days during treatment for up to 20 days post-treatment. […] South Texas Accelerated Research Therapeutics (START; San Antonio, Texas) evaluated the antitumor activity of G1T38 in a START Cell-Based Xenograft (START-CBX) tumor model, MCF-7, representing human breast cancer. Data collected from this efficacy study included animal weights, observations, and tumor dimensions. This information was used to determine agent tolerability based on weight change and gross physiologic changes, and anticancer activity based on tumor growth inhibition or regression. Study endpoint was Day 60. MCF-7 cells were harvested from culture and injected into immune-deficient mice and the study initiated at a mean tumor volume of approximately 150-250 mm^3. […] Tumor growth inhibition (%TGI) was calculated using the following equation: %TGI=(1-(((TVtmtfinal-TVtmtinitial))/((AVERAGE(TVctlfinal))-(AVERAGE(TVctlinital)))))*100.

H1975 xenograft = assay: H1975 NSCLC xenograft model; assay type: in vivo, mice
Text: To evaluate the efficacy of G1T38 in combination with EGFR inhibitors, the H1975 xenograft model was utilized. H1975 is a human NSCLC that harbors the […] mutations rendering resistance to erlotinib treatment.
Afatinib is an irreversible second generation pan-ErbB inhibitor developed as a first-line treatment of patients with metastatic NSCLC whose tumors harbor EGFR mutations or deletions as well as in patients with metastatic disease that progressed after platinum-based chemotherapy.
Female NCI Ath/nu mice were implanted with H1975 NSC lung adenocarcinoma model. Once tumors reached an average size of 100- 150 mm^3, mice were randomized into treatment cohorts. Mice were orally administered daily afatinib (20 mg/kg, Genentech/OSI), erlotinib (70 mg/kg, LC Labs), or G1T38 (50 or 100 mg/kg), as single agents or in combination (G1T38 + erlotinib or G1T38 + afatinib) for the duration of the study. Tumors were measured twice weekly until mice reached tumor burden of 1500 mm^3.

neutrophils = assay: Peripheral blood analysis, 28 days daily oral dosing
[1] = set-up: method as in earlier work; conditions: Mouse; cited from earlier work
[2] = set-up: method as in earlier work; conditions: Rat; cited from earlier work
7-day continuous oral PK = conditions: C57BL/6, mouse, plasma
[3] = set-up: method as in earlier work; conditions: Dog; cited from earlier work
[4] = cited from earlier work

CC/C(=C(\c1ccccc1)c1ccc(/C=C/C(=O)O)cc1)c1ccccc1 [GW5638, reference compound]
TGI as single agents (GW5638 study) (ER+ MCF7 xenograft; G1T38 25 or 50 mg/kg alone, GW5638 25 mg/kg alone): modest TGI

CN(C)C/C=C/C(=O)Nc1cc2c(Nc3ccc(F)c(Cl)c3)ncnc2cc1O[C@H]1CCOC1 [afatinib, reference compound]
time at which tumors began to regrow (H1975 xenograft; afatinib only cohort, 20 mg/kg): ≤ 14 days

C#Cc1cccc(Nc2ncnc3cc(OCCOC)c(OCCOC)cc23)c1 [erlotinib, reference compound]
difference from vehicle treated mice (H1975 xenograft; 70 mg/kg daily): no significant difference

CC(=O)c1c(C)c2cnc(Nc3ccc(N4CCNCC4)cn3)nc2n(C2CCCC2)c1=O [palbociclib]
decrease in neutrophils compared with G1T38 (neutrophils): similar
T1/2 [1]: 2.5 to 4.2 h
tumor growth inhibition (TGI) (ER+ MCF7 xenograft; 10 mg/kg once daily oral): 18%
tumor growth inhibition (TGI) (ER+ MCF7 xenograft; 50 mg/kg once daily oral): 66%
time to tumor regression (ER+ MCF7 xenograft; 100 mg/kg daily oral): ≤ 10 days
tumor growth inhibition (TGI) (ER+ MCF7 xenograft; 100 mg/kg once daily oral): 87%
T1/2 [2]: 2.4 to 4.9 h
concentration at 24 h (7-day continuous oral PK): ~600 nM
T1/2 [3]: 20.7 h
T1/2 ([4]; Human): 29 h
half-life ([4]; in humans): > 24 h
